This passage reports Kd results from patent US20240190849A1, “AMINOPYRIMIDINE COMPOUNDS AND METHODS OF THEIR USE” (TYRA BIOSCIENCES, INC., priority 2021, published 2024).

Where only a bound is given, the exact number is not on record here.

Common to all, as to conditions: FGFR binding data
Assay [1] concerns the target T1, FGFR3 (Homo sapiens, UniProt P22607).
T1 construct: made in house; host or cells: E. coli derived from BL21, infected with T7 phage
The assay is described as follows: Kinase binding assay (kinase-tagged T7 phage, affinity beads, qPCR readout), FGFR3. The method, then:
(§1) Kinase-tagged T7 phage strains were prepared in an E. coli host derived from the BL21 strain. E. coli were grown to log-phase and infected with T7 phage and incubated with shaking at 32° C. until lysis. The lysates were centrifuged and filtered to remove cell debris. Streptavidin-coated magnetic beads were treated with biotinylated small molecule ligands for 30 minutes at room temperature to generate affinity resins for kinase assays. The liganded beads were blocked with excess biotin and washed with blocking buffer SeaBlock (Pierce), 1% BSA, 0.05% Tween 20, 1 mM DTT to remove unbound ligand and to reduce non-specific binding. Binding reactions were assembled by combining kinases, liganded affinity beads, and test compounds in 1× binding buffer (20% SeaBlock, 0.17×PBS, 0.05% Tween 20, 6 mM DTT).
(§2) Test compounds were prepared as 111× stocks in 100% DMSO. Kds were determined using an 11-point 3-fold compound dilution series with three DMSO control points. All compounds for Kd measurements are distributed by acoustic transfer (non-contact dispensing) in 100% DMSO. The compounds were then diluted directly into the assays such that the final concentration of DMSO was 0.9%. All reactions performed in polypropylene 384-well plate. Each was a final volume of 0.02 ml. The assay plates were incubated at room temperature with shaking for 1 hour and the affinity beads were washed with wash buffer (1×PBS, 0.05% Tween 20). The beads were then re-suspended in elution buffer (1×PBS, 0.05% Tween 20, 0.5 μM non-biotinylated affinity ligand) and incubated at room temperature with shaking for 30 minutes. The kinase concentration in the eluates was measured by qPCR.
(§3) Binding constants were calculated with a standard dose-response curve using the Hill equation: […]
(§4) The Hill Slope was set to −1. Curves were fitted using a non-linear least square fit with the Levenberg-Marquardt algorithm.
(In qPCR the cycle at which signal appears reflects the starting amount.)

Assay [2] concerns the target T2, FGFR3 (V555M) (Homo sapiens, UniProt P22607, V555M).
T2 construct: made in house; host or cells: E. coli derived from BL21, infected with T7 phage
The assay is described as follows: Kinase binding assay (kinase-tagged T7 phage, affinity beads, qPCR readout), FGFR3 (V555M). The method, then:
as §1, §2, §3, §4

Assay [3] concerns the target T3, FGFR1 (Homo sapiens, UniProt P11362).
T3 construct: made in house; host or cells: E. coli derived from BL21, infected with T7 phage
The assay is described as follows: Kinase binding assay (kinase-tagged T7 phage, affinity beads, qPCR readout), FGFR1. The method, then: as §1, §2, §3, §4

The target in assay [4] is T4, FGFR2 (Homo sapiens, UniProt P21802).
T4 construct: made in house; host or cells: E. coli derived from BL21, infected with T7 phage
T4 sequence (P21802 22-821): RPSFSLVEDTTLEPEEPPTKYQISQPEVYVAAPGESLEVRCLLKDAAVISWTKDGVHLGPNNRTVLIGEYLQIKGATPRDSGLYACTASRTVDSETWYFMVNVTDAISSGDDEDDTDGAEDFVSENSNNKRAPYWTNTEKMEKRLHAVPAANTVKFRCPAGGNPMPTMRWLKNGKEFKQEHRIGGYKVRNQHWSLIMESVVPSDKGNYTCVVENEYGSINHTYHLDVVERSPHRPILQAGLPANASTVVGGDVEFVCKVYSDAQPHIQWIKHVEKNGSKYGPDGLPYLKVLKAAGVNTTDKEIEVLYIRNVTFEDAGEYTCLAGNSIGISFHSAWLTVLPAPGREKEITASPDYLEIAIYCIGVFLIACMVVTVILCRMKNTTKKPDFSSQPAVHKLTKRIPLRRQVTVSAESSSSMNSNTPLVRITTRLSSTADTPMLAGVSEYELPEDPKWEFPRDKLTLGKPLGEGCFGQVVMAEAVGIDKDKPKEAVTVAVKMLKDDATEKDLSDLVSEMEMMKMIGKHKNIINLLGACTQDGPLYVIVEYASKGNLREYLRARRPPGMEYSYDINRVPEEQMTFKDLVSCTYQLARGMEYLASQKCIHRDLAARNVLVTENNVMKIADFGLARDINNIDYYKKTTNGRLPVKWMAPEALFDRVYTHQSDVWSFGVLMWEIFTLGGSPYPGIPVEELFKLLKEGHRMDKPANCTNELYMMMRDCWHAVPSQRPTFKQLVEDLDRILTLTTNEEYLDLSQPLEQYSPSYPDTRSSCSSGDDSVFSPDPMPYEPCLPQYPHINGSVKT
The assay is described as follows: Kinase binding assay (kinase-tagged T7 phage, affinity beads, qPCR readout), FGFR2. The protocol: as §1, §2, §3, §4

T1 sequence (P22607 23-806): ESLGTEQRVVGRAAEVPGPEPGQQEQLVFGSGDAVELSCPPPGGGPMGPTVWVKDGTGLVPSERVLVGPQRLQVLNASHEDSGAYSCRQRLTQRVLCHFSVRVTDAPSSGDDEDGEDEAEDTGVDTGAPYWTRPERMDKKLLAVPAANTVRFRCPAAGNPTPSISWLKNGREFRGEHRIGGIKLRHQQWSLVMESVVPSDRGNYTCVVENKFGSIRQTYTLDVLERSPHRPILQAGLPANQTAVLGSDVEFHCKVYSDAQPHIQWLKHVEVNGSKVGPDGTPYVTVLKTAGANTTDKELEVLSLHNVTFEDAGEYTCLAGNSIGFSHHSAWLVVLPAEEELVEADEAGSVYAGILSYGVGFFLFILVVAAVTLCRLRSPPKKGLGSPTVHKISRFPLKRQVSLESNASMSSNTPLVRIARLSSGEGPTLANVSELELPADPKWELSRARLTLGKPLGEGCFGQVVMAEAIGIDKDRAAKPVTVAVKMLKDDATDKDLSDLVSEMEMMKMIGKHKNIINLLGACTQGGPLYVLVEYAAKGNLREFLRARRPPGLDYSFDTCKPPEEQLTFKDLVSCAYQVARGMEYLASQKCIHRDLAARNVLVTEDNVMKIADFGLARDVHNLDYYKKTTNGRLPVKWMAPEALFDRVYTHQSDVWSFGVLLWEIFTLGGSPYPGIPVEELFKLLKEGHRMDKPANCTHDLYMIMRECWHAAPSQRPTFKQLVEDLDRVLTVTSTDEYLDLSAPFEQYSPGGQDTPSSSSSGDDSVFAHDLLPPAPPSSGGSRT
T3 sequence (P11362 22-822): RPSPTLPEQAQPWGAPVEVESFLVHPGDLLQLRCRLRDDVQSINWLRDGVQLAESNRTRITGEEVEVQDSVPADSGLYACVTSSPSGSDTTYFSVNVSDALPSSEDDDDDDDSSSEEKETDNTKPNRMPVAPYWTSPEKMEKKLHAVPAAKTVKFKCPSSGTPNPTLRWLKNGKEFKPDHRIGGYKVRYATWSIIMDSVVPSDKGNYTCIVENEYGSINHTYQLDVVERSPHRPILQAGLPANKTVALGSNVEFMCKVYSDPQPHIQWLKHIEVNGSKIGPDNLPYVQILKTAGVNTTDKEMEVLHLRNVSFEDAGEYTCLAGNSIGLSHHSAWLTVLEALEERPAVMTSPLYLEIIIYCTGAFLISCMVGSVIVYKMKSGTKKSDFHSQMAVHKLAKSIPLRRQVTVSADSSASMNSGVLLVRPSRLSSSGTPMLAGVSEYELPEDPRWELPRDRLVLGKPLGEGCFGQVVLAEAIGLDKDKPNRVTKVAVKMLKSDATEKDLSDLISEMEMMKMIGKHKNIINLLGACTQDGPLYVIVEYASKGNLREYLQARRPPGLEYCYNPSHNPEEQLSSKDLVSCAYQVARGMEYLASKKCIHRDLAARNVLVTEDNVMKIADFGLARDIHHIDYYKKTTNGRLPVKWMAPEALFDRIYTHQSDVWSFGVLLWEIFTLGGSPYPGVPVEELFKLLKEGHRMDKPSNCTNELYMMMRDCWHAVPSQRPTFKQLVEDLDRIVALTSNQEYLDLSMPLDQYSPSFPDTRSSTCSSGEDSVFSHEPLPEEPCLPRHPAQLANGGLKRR
T2 sequence (P22607 23-806 V555M): as the sequence (P22607 23-806) above, with V533M counted along it

The term Kd denotes the free concentration of one partner at which half of the binding sites on the other are occupied at equilibrium, for simple one-to-one binding. Read a low Kd as a tighter complex. `C=CC(=O)Nc1ccc2c(-c3nc(Nc4ccc(N5CCN(C)CC5)nc4)ncc3Cl)cn(C)c2c1` [Example 59, N-[3-[5-chloro-2-[[6-(4-methylpiperazin-1-yl)-3-pyridyl]amino]pyrimidin-4-yl]-1-methyl-indol-6-yl]prop-2-enamide]: the Kd in assay [1], in assay [2], in assay [3] and in assay [4] was 0.1 to 100 nM in each case.

Turning to `C=CC(=O)Nc1cc2c(C)cn(-c3nc(Nc4ccc(N5CCOCC5)cc4)ncc3Cl)c2cc1C` [Example 60, N-[1-[5-chloro-2-(4-morpholinoanilino)-pyrimidin-4-yl]-3,6-dimethyl-indol-5-yl]prop-2-enamide], the Kd in assay [1] is > 1000 nM; in assay [2] it was 100 to 250 nM; in assay [3], > 1000 nM; in assay [4] it was > 1000 nM.

On to `C=CC(=O)Nc1ccc2c(-c3nc(Nc4ccnn4C)ncc3Cl)cn(C)c2c1` [Example 62, N-[3-[5-chloro-2-[(2-methylpyrazol-3-yl)amino]pyrimidin-4-yl]-1-methyl-indol-6-yl]prop-2-enamide], for which the Kd in assay [1] was 0.1 to 100 nM; in assay [2], 0.1 to 100 nM; in assay [3] it was 250 to 1000 nM; in assay [4] it was 0.1 to 100 nM.

`C=CC(=O)Nc1ccc2c(-c3nc(Nc4cc(C)nn4C)ncc3Cl)cn(C)c2c1` [Example 63, N-[3-[5-chloro-2-[(2,5-dimethylpyrazol-3-yl)amino]-pyrimidin-4-yl]-1-methyl-indol-6-yl]prop-2-enamide]: the Kd fell in the range of 0.1 to 100 nM in assay [1], 0.1 to 100 nM in assay [2], 250 to 1000 nM in assay [3] and 0.1 to 100 nM in assay [4].

Regarding `C=CC(=O)Nc1ccc2c(c1)c(C)cn2-c1nc(Nc2ccc(CN3CCN(C)CC3)cc2)ncc1Cl` [Example 65, N-[1-[5-chloro-2-[4-[(4-methylpiperazin-1-yl)methyl]-anilino]pyrimidin-4-yl]-3-methyl-indol-5-yl]prop-2-enamide], the Kd in assay [1], in assay [2], in assay [3] and in assay [4] was 0.1 to 100 nM in each case.

Consider `C=CC(=O)Nc1ccc2c(c1)c(C)cn2-c1nc(Nc2ccc(CN3CCOCC3)c(C)c2)ncc1Cl` [Example 66, N-[1-[5-chloro-2-[3-methyl-4-(morpholinomethyl)anilino]pyrimidin-4-yl]-3-methyl-indol-5-yl]prop-2-enamide], for which the Kd in assay [1], in assay [2], in assay [3] and in assay [4] was 0.1 to 100 nM each time.

For the compound `C=CC(=O)Nc1cc(C)c2c(c1)c(C)cn2-c1nc(Nc2cnn(C)c2)ncc1Cl` [Example 71, N-[1-[5-chloro-2-[(1-methylpyrazol-4-yl)amino]pyrimidin-4-yl]-3,7-dimethyl-indol-5-yl]prop-2-enamide], the dissociation constant (Kd) in assay [1], in assay [2], in assay [3] and in assay [4] was > 1000 nM each time.

As to `C=CC(=O)Nc1ccc2c(c1)c(C)cn2-c1nc(Nc2cnnn2C)ncc1Cl` [Example 72, N-[1-[5-chloro-2-[(3-methyltriazol-4-yl)amino]pyrimidin-4-yl]-3-methyl-indol-5-yl]prop-2-enamide], the Kd in assay [1], in assay [2], in assay [3] and in assay [4] was 0.1 to 100 nM throughout.

As for `C=CC(=O)Nc1ccc2c(c1)c(C)cn2-c1nc(Nc2cccc(N3CCN(C)CC3)c2)ncc1Cl` [Example 73, N-[1-[5-chloro-2-[3-(4-methylpiperazin-1-yl)anilino]-pyrimidin-4-yl]-3-methyl-indol-5-yl]prop-2-enamide], the Kd in assay [1], in assay [2], in assay [3] and in assay [4] was 0.1 to 100 nM each time.

`C=CC(=O)Nc1cc(C)c2c(c1)c(C)cn2-c1nc(Nc2ccc(N3CCOCC3)cc2)ncc1Cl` [Example 74, N-[1-[5-chloro-2-(4-morpholinoanilino)pyrimidin-4-yl]-3,7-dimethyl-indol-5-yl]prop-2-enamide]: the Kd in assay [1], in assay [2], in assay [3] and in assay [4] was 0.1 to 100 nM each time.
